Data as given in ChEMBL document CHEMBL1201862, “PubChem BioAssay data set” (2004).
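How tested: cells in 96-well plates exposed to compound for 48 hours at five concentrations. At the GI50, growth is halved.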 Active and inactive are the calls of the source. No stated cut-off is given here; in the data, active = GI50 up to about 1.1 µM and inactive = higher.

What was measured:
Assay in all cases: NCI anticancer screen, dose series, 48 h
[1] = test system: A549
[2] = test system: ACHN
[3] = test system: HL-60
[4] = test system: HOP-62
[5] = test system: HT-29
[6] = test system: IGROV-1
[7] = test system: KM-20L2
[8] = test system: LOX IMVI
[9] = test system: M14
[10] = test system: NCI-H522
[11] = test system: SF-268
[12] = test system: SK-MEL-28
[13] = test system: SK-MEL-5
[14] = test system: TK-10
[15] = test system: HOP-92
[16] = test system: NCI-H23
[17] = test system: RPMI-8226

Measured: GI50

CC(=O)Nc1ccc(C(=O)NN2C(=O)C(Cl)C2c2ccc(O)cc2)cc1 (centres undefined)
inactive: [1] > 100 µM | [2] > 100 µM | [3] > 100 µM | [4] 57.9 µM | [5] > 100 µM | [6] > 100 µM | [7] > 100 µM | [8] > 100 µM | [9] > 100 µM | [10] > 100 µM | [11] 64.1 µM | [12] > 100 µM | [13] > 100 µM | [14] > 100 µM

COc1ccc2c(c1)C1(C=N2)CCN(C(C)=O)CC1
inactive: [1] > 100 µM | [2] > 100 µM | [3] > 100 µM | [4] > 100 µM | [15] 87.9 µM | [5] > 100 µM | [6] > 100 µM | [7] > 100 µM | [8] > 100 µM | [9] > 100 µM | [16] > 100 µM | [17] 50.4 µM | [11] 48 µM | [12] > 100 µM | [13] > 100 µM | [14] > 100 µM

CC(=O)NC(CCCCN)C(=O)NCc1ccccc1 (centres undefined)
inactive: [1] > 100 µM | [2] > 100 µM | [4] > 100 µM | [15] > 100 µM | [5] > 100 µM | [6] > 100 µM | [7] > 100 µM | [8] > 100 µM | [9] > 100 µM | [16] > 100 µM | [10] > 100 µM | [17] > 100 µM | [11] 42.1 µM | [12] > 100 µM | [13] > 100 µM | [14] > 100 µM

C=CCC(C)(C(=O)NCCC)C(=O)c1ccccc1O (centres undefined)
inactive: [1] > 100 µM | [2] > 100 µM | [3] > 100 µM | [4] > 100 µM | [6] > 100 µM | [7] > 100 µM | [9] > 100 µM | [10] > 100 µM | [17] > 100 µM | [11] > 100 µM | [12] > 100 µM | [13] > 100 µM | [14] > 100 µM

CCc1cc(Cc2ccc(C)c(NC(=O)C(=O)C3C(=O)NC(=O)NC3=O)c2CC)cc(C)c1NC(=O)C(=O)C1C(=O)NC(=O)NC1=O
inactive: [1] > 100 µM | [2] > 100 µM | [3] > 100 µM | [4] > 100 µM | [6] > 100 µM | [7] > 100 µM | [8] > 100 µM | [9] > 100 µM | [16] > 100 µM | [10] > 100 µM | [17] > 100 µM | [11] > 100 µM | [12] > 100 µM | [13] > 100 µM | [14] > 100 µM
